Legend:
NCI-H295R [1] = assay: ExcessHSA synergy score with TAK-243; higher = less synergy (negative = synergistic); conditions: combined with: TAK-243 (MLN-7243) matrix, 9-point 1:2 dilution
Method: (§1)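 Each drug was tested at 9 points with 1:2 dilution; viability was read by CellTiter-Glo as in the single-agent screen. Synergy is scored as ExcessHSA (sum of excess over highest single agent; negative = synergy) and the Beta interaction parameter (<1 synergy).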

CU-ACC1 [2] = assay: as above; conditions: combined with: TAK-243 (MLN-7243) matrix, 9-point 1:2 dilution
Method: as §1

CU-ACC1 [3] = assay: AC50 viability; higher = less potent; conditions: 48 h
In short: (§2)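 Library compounds were tested at 11 concentrations against three adrenocortical carcinoma cell lines in 1,536-well plates. CellTiter-Glo luminescence was read after 48 h and normalised per plate to vehicle and empty-well controls. Only inhibitory or non-responding curve classes from fitted concentration-response curves contributed AC50 and area under the curve.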

CU-ACC2 [4] = assay: AC50 viability; higher = less potent; conditions: 48 h
In short: as §2

NCI-H295R [5] = assay: AC50 viability; higher = less potent; conditions: 48 h
In short: as §2

CU-ACC1 [6] = assay: area under concentration-response curve (viability) (AUC (a.u.)); higher = less active; conditions: 48 h
In short: as §2

CU-ACC2 [7] = assay: as above; conditions: 48 h
In short: as §2

NCI-H295R [8] = assay: as above; conditions: 48 h
In short: as §2

Row | Compound | ExcessHSA synergy score with TAK-243 (NCI-H295R [1]) | ExcessHSA synergy score with TAK-243 (CU-ACC1 [2]) | AC50 viability (CU-ACC1 [3]) [µM] | AC50 viability (CU-ACC2 [4]) [µM] | AC50 viability (NCI-H295R [5]) [µM] | area under concentration-response curve (CU-ACC1 [6]) | area under concentration-response curve (CU-ACC2 [7]) | area under concentration-response curve (NCI-H295R [8])
1 | CCN(c1cc(-c2ccc(CN3CCOCC3)cc2)cc(C(=O)NCc2c(C)cc(C)[nH]c2=O)c1C)C1CCOCC1 [Tazemetostat] | -203 | – | – | – | – | – | – | –
2 | Nc1nc2[nH]cc(CCc3ccc(C(=O)N[C@@H](CCC(=O)O)C(=O)O)cc3)c2c(=O)[nH]1 | – | 147 | – | – | – | – | – | –
3 | Nc1nc2[nH]cc(CCc3ccc(C(=O)N[C@@H](CCC(=O)O)C(=O)O)cc3)c2c(=O)[nH]1 [Pemetrexed] | 397 | – | – | – | – | – | – | –
4 | Nc1ncn([C@@H]2O[C@H](CO)[C@@H](O)[C@H]2O)c(=O)n1 [5-Azacitidine] | – | 346 | – | – | – | – | – | –
5 | O=C1NC(=O)/C(=C/c2ccc3nccc(-c4ccncc4)c3c2)S1 | – | – | 1.32 | 1.18 | 1.32 | 412 | 480 | 393
6 | Cc1ccc(-c2ccc3ncc4c(c3n2)n(C2CCN(C(=O)[C@H](C)O)CC2)c(=O)n4C)cn1 | – | – | 0.263 | 0.263 | 0.295 | 363 | 492 | 394
7 | C[C@H]([C@H]1C\C(=C(CO)/C(=O)O1)C)[C@H]2CC[C@H]3[C@@H]4C[C@H]5O[C@]56[C@@H](O)\C=C/C(=O)[C@]6(C)[C@H]4CC[C@]23C | – | – | 1.48 | 0.468 | 1.18 | 270 | 393 | 401
8 | Cc1c(CN2CCN([S+](C)(=O)[O-])CC2)sc2c(N3CCOCC3)nc(-c3cnc(N)nc3)nc12 | – | – | 0.525 | 0.468 | 1.18 | 282 | 403 | 333
9 | Clc1ccc(C(c2ccc(Cl)cc2)[n+]2ccn(CC(OCc3ccc(Cl)cc3Cl)c3ccc(Cl)cc3Cl)c2)cc1 (stereo unspecified) | – | – | 13.2 | 11.8 | 8.33 | 442 | 528 | 445
10 | Nc1ncn([C@@H]2O[C@H](CO)[C@@H](O)[C@H]2O)c(=O)n1 [5-Azacytidine] | 360 | – | – | – | – | – | – | –
11 | c1ccc(CNc2nc(NCc3ccccc3)c3ccccc3n2)cc1 | – | – | 7.42 | 9.34 | 7.42 | 366 | 467 | 386
12 | Cc1cnc(Nc2ccc(OCCN3CCCC3)cc2)nc1Nc1cccc([S+](=O)([O-])NC(C)(C)C)c1 | – | – | 16.6 | 8.33 | 8.33 | 491 | 547 | 501
13 | CCN(CC)Cc1ccc2cc(COC(=O)Nc3ccc(C(=O)NO)cc3)ccc2c1 | – | – | 3.72 | 4.68 | 9.34 | 365 | 390 | 382
14 | C=CC(=O)Nc1cccc(Nc2nc(Nc3ccc(NC4CN(CCF)C4)cc3OC)ncc2C(F)(F)F)c1 | – | – | 9.34 | 14.8 | 8.33 | 398 | 386 | 446
15 | c1cc(-c2cnn3cc(-c4ccc(OCCN5CCCCC5)cc4)cnc23)ccn1 | – | – | 11.8 | 9.34 | 10.5 | 404 | 456 | 450
16 | C[C@@H]1COCCN1c1cc(-c2ccnn2C)c2ccnc(-c3ccn[nH]3)c2n1 | – | – | 0.742 | 6.61 | 1.32 | 388 | 399 | 415
17 | CNC(=O)c1cc(COc2nnc(Nc3ccc(Cl)cc3)c3ccoc23)ccn1 | – | – | 1.86 | 8.33 | 5.25 | 419 | 462 | 423
18 | CC[S+](=O)([O-])N1CCN(c2ccc(Nc3ncc(C(N)=O)c(NC4CC4)n3)cc2)CC1 | – | – | 20.9 | 26.3 | 16.6 | 474 | 561 | 499
19 | CC[C@H](CC#N)OC(=O)N[C@@H](C)c1cccc(NC(=O)Nc2ccc(-c3cnco3)c(OC)c2)c1 | – | – | 5.9 | 5.9 | 2.09 | 456 | 530 | 489
20 | COC1=CC2=NC=CC(=C2C=C1)OC3=CN=C(NC(=O)C/4=C(C)/N(CC(C)(C)O)N(C4=O)C5=CC=CC=C5)C=C3 | – | – | 23.5 | 18.6 | 14.8 | 354 | 350 | 369
21 | COC(C)(C)CCn1nc(Nc2c(C)cccc2C)c2cnc(Nc3ccc(OCCN4CCCC4)c(F)c3)nc21 | – | – | 14.8 | 14.8 | 11.8 | 506 | 467 | 513
22 | CNc1nc(-c2ccc3c(N)n[nH]c3c2)cc(N2C[C@@H](C(=O)NC3CCCCC3)CC[C@H]2C)n1 | – | – | 20.9 | 20.9 | 18.6 | 458 | 544 | 506
23 | COCCOC(=O)N1CCN([S+](=O)([O-])c2cc(F)c(Oc3ccc(Cl)cc3)c(F)c2)C(C(=O)NO)C1 (stereo unspecified) | – | – | 13.2 | 10.5 | 20.9 | 471 | 428 | 507
24 | CCN(c1cc(-c2ccc(CN3CCOCC3)cc2)cc(C(=O)NCc2c(C)cc(C)[nH]c2=O)c1C)C1CCOCC1 | – | -215 | – | – | – | – | – | –
25 | Cc1c[nH]c2nc(Nc3ccc(N4CCN(C)CC4)c(F)c3)nc(-c3cccc(CC#N)c3)c12 | – | – | 6.61 | 4.17 | 5.25 | 457 | 422 | 472
26 | C=CCNC1=C2CC(C)CC(OC)C(O)C(C)/C=C(\C)C(OC(N)=O)C(OC)/C=C/C=C(\C)C(=O)NC(=CC1=O)C2=O (stereo unspecified) | – | – | 3.32 | 1.18 | 10.5 | 410 | 480 | 491

Row | Compound | ExcessHSA synergy score with TAK-243 (NCI-H295R [1]) | ExcessHSA synergy score with TAK-243 (CU-ACC1 [2]) | AC50 viability (CU-ACC1 [3]) [µM] | AC50 viability (CU-ACC2 [4]) [µM] | AC50 viability (NCI-H295R [5]) [µM] | area under concentration-response curve (CU-ACC1 [6]) | area under concentration-response curve (CU-ACC2 [7]) | area under concentration-response curve (NCI-H295R [8])
27 | Cc1cc2cc(Oc3ccnc(Nc4cccc(C[S+](=O)([O-])NCCN(C)C)c4)n3)ccc2[nH]1 | – | – | 20.9 | 23.5 | 23.5 | 493 | 480 | 468
28 | COc1cc2c(NC3CCN(CC4CCCCC4)CC3)nc(N3CCCN(C(C)C)CC3)nc2cc1OCCCN1CCCCC1 | – | – | 20.9 | 10.5 | 16.6 | 426 | 485 | 449
29 | Cc1cc(-c2ccc(CC(=O)Nc3ccc(-c4cccnc4)cc3)cc2)ccn1 | – | – | 20.9 | 23.5 | 16.6 | 435 | 460 | 440
30 | ClC1=CC\2=C(NC(=O)\C(=C2N[C@@H]3CN4CCC3CC4)C5=NC6=C([NH]5)C=CC=C6)C=C1 | – | – | 16.6 | 5.25 | 0.118 | 404 | 365 | 404
31 | Cc1ccc(C(=O)Nc2cccc(C(F)(F)F)c2)cc1-c1ccc2nc(NCCN3CCOCC3)ncc2c1 | – | – | 10.5 | 18.6 | 18.6 | 481 | 576 | 546
32 | CC(C)(Cc1ccc2ccccc2c1)NC[C@@H](O)COc1cccc(Cl)c1C#N | – | – | 9.34 | 7.42 | 9.34 | 460 | 530 | 480
33 | COc1cc(N2CCC(N)CC2)ccc1Nc1ncc(Cl)c(-c2c[nH]c3ccccc23)n1 | – | – | 9.34 | 5.9 | 1.18 | 386 | 357 | 318
34 | C[N]1N=C(C)C2=C1OC(=C(/C#N)C2C3=CC=C(C=C3)C(F)(F)F)/N (stereo unspecified) | – | – | 18.6 | 18.6 | 18.6 | 460 | 422 | 479
35 | Oc1c(Cl)cc(Cl)c2cccnc12 | – | – | 20.9 | 14.8 | 16.6 | 417 | 426 | 404
36 | C1=CC2=N/C(=N\c3ccc(OCCN4CCCC4)c(c3)COC/C=C/COCc3cccc2c3)N1 | – | – | 3.72 | 2.63 | 4.17 | 387 | 436 | 387
37 | COc1cc2c(Nc3ccc(Br)cc3F)ncnc2cc1OCC1CCN(C)CC1 | – | – | 14.8 | 16.6 | 16.6 | 401 | 418 | 403
38 | CC(C)c1cc(CNc2nc(Nc3cc(C4CC4)[nH]n3)cc(N3CCN(C)CC3)n2)on1 | – | – | 8.33 | 2.95 | 5.9 | 429 | 325 | 411
39 | O=C(Nc1c[nH]nc1-c1nc2cc(CN3CCOCC3)ccc2[nH]1)NC1CC1 | – | – | 8.33 | 2.63 | 16.6 | 423 | 386 | 350
40 | CCNCCc1ccc(CN(CC)c2cc(OC)ccc2[C@@H]2CCc3cc(O)ccc3C2)cc1 | – | – | 9.34 | 7.42 | 7.42 | 447 | 515 | 440
41 | c1ccc2c(CCNc3ccc(Nc4ccncc4)cc3)c[nH]c2c1 | – | – | 5.9 | 10.5 | 1.86 | 363 | 374 | 400
42 | CC(C)c1cc(C(=O)N2Cc3ccc(CN4CCN(C)CC4)cc3C2)c(O)cc1O | – | – | 2.35 | 0.833 | 3.72 | 371 | 445 | 445
43 | Cc1cc(Nc2cc(CN3CCOCC3)c3nc(C)c(Cc4ccc(Cl)cc4F)n3n2)[nH]n1 | – | – | 37.2 | 18.6 | 23.5 | 440 | 439 | 420
44 | CCN(CC)CCNC(=O)c1ccc2nc(-c3ccccc3)c(-c3ccc(CN4CCC(n5c(=O)[nH]c6ccccc65)CC4)cc3)nc2c1 | – | – | 9.34 | 7.42 | 9.34 | 444 | 479 | 440
45 | C[S+](=O)([O-])N1CCN(Cc2cc3nc(-c4cccc5[nH]ncc45)nc(N4CCOCC4)c3s2)CC1 | – | – | 0.934 | 16.6 | 0.661 | 420 | 402 | 406
46 | COc1cc(-c2nn(C3CCC(N4CCN(C(C)=O)CC4)CC3)c3ncnc(N)c23)ccc1NC(=O)c1cc2ccccc2n1C (stereo unspecified) | – | – | 8.33 | 10.5 | 9.34 | 418 | 512 | 460
47 | CCc1ccc(OCc2ccccc2C(=O)Nc2ccc3nc(C)cc(N)c3c2)cc1 | – | – | 10.5 | 6.61 | 8.33 | 342 | 513 | 482
48 | NC1(C(=O)N[C@@H](CCO)c2ccc(Cl)cc2)CCN(c2ncnc3[nH]ccc23)CC1 | – | – | 3.72 | 18.6 | 5.9 | 432 | 515 | 463
49 | Cc1ccc([S+](=O)([O-])Nc2cc(C(F)(F)F)ccc2C(=O)Nc2nc(-c3ccccc3)cs2)cc1 | – | – | 10.5 | 8.33 | 8.33 | 436 | 499 | 479
50 | COc1cc2c(Nc3ccc(Cl)c(Cl)c3F)ncnc2cc1OC[C@@H]1C[C@@H]2CN(C)C[C@@H]2C1 | – | – | 9.34 | 13.2 | 14.8 | 407 | 449 | 430
51 | CC[C@@H]1C(=O)N(C)c2cnc(Nc3ccc(C(=O)NC4CCN(C)CC4)cc3OC)nc2N1C1CCCC1 | – | – | 20.9 | 16.6 | 16.6 | 412 | 461 | 404
